By CC50 is commonly meant the concentration giving 50% cytotoxicity. As usually defined, the EC50 is the concentration needed to bring the measured effect to its halfway point. Usually IC50 stands for the concentration that gives 50% inhibition. Usually inhibition stands for the share of the control response that was lost under treatment. Lower therefore signals a response near the control.

For series [1], the system named is Huh-5-2 cells. Further details: method as in PMID 19303654. The settings on record: cited from earlier work.
The subject of series [2] is HCV. Further details: method as in PMID 19303654. The settings on record: Huh-5-2 cells; cited from earlier work.
In series [3] the test system is subgenomic HCV genotype 1b replicon. Further details: method as in PMID 30951311. As to conditions: cited from earlier work.
Series [4] deals with HCV subgenomic replicon. The series is described as follows: Anti-HCV assay in Huh 9-13 cells (real-time quantitative RT-PCR of replicon RNA). Type of series: cell-based, hepatitis C virus (HCV). The settings on record: for % replicon RNA: normalized against no-drug control; for EC50: Hepatitis C virus. The protocol:
Furthermore, the antiviral activity of three of the hits (i.e., 7a, 7b, and 18) was validated by evaluation of the dose–response effect of treatment with the compounds at the level of viral RNA replication in the Huh 9-13 assay system. The real-time quantitative RT-PCR readout was used.
Huh 9-13 cells were seeded at 5 × 10^3 cells per well into 96-well plates containing complete DMEM supplemented with 1000 µg/mL G418. […] After 4 days of incubation, the culture medium was removed, and the cell monolayers were washed once with phosphate-buffered saline (PBS). Cells were then lysed using 350 µL of RLT buffer (Qiagen, Venlo, The Netherlands) as per the manufacturer’s protocol, and the lysates were stored at −80 °C for future analysis. Upon completion of sample collection, RNA was extracted, and the samples were analyzed through quantitative real-time PCR to measure their HCV replicon content. The real-time RT-PCR data for all samples were calibrated against the “no-drug control”.
* After collection of all samples, RNA was extracted and samples were analyzed by quantitative real-
time PCR for their HCV replicon content. Real-time RT-PCR values of all assayed samples were
normalized against the “no-drug control”.
On the technique in general: In antiviral work, replicon cells carry a viral genome segment that copies itself.

Series [5] is described as follows: Host-cell metabolic activity (MTS assay) in Huh 5-2 cells. It is filed as cell-based. The settings on record: human. From the text:
(§1) An evaluation of the antiviral effects of the conjugated compounds was initially performed in Huh 5-2 cells utilizing the HCV genotype 1b subgenomic replicon system, based on previously reported procedures. By analyzing the dose–response curves, we calculated the concentration of each compound that inhibited the viral replication by 50% (EC50) and the concentration that reduced the host-cell metabolic activity by 50% (CC50). These values were then used to compute the selectivity index (SI = CC50/EC50), which serves as an indicator of a compound’s therapeutic window. Even if an EC50 was determined from the dose–response curve in the antiviral assay, the compounds that were evaluated may not qualify as promising hits. […] It is likely that the antiviral activity observed in the other compounds is due to their nonspecific or pleiotropic effects on the host cell.

The test system of series [6] is Detroit 551 cells. The series is described as follows: Cell viability (MTS) assay in Detroit 551 cells. As to conditions: Detroit 551 cells. It is filed as cell-based. As for the experimental part: Detroit 551 cells, a human fibroblast cell line, are routinely employed to assess both acute and chronic toxicity in normal human cells. Evaluating the cytotoxicity of compounds in Detroit 551 cells helps to identify potential safety concerns early in drug development. The three promising leads, 7a, 7b, and 18, were tested in a Detroit 551 assay using the antineoplastic and antibiotic agent actinomycin D as a positive control.
Detroit 551 cells were harvested and seeded into a 96-well plate, then incubated at 37 °C for 24 h. A serial dilution of the test compound was prepared in eight three-fold concentrations (20,000 nM, 6667 nM, 2222 nM, 741 nM, 247 nM, 82 nM, 27 nM, and 9 nM), and 10 µL of each dilution was added to the corresponding wells. The plate was then returned to 37 °C for an additional 72 h of incubation. After this incubation, a 3-(4,5-dimethylthiazol-2-yl)-5-(3-carboxymethoxyphenyl)-2-(4-sulfophenyl)-2H-tetrazolium (MTS) assay medium (mixed in a 2:0.1 ratio of MTS–phenazine methyl sulfate (PMS)) was prepared. The plate was moved to a biological safety cabinet, and 21 µL of the MTS medium was added to each well. The plate was then incubated at 37 °C for 90 min before absorbance was measured at 490 nm on a Victor 2 plate reader (PerkinElmer, Inc., Waltham, MA, USA). Data were subsequently analyzed to assess cytotoxicity.

Series [7] concerns HCV genotype 1b subgenomic replicon. The experiment in a line: Anti-HCV assay in Huh 5-2 cells (luciferase replicon readout). It is filed as cell-based, hepatitis C virus (HCV). The settings on record: for EC50: Huh-5-2, Huh 5-2 cells, luminescence.
Excerpt: as §1
Huh 5-2 cells were plated in white, tissue culture-treated 96-well view plates (Packard, Canberra, Canada) at a density of 5 × 10^3 cells per well, using complete Dulbecco’s Modified Eagle Medium (DMEM) containing 250 µg/mL G418. Following 24 h incubation at 37 °C with 5% CO2, the medium was discarded and serial 3-fold dilutions of the test compounds—prepared in complete DMEM lacking G418—were added to reach a final volume of 100 µL per well. After an additional 4-day incubation period under the same conditions, the medium was removed, and luciferase activity was assessed using the Steady-Glo luciferase assay kit (Promega, Leiden, The Netherlands). Luminescence was measured with a Luminoskan Ascent reader (Thermo, Vantaa, Finland). The EC50 value was determined as the compound concentration resulting in a 50% decrease in luciferase signal.

Series [8] is described as follows: Host-cell metabolic activity in Huh 9-13 cells. Type of series: cell-based. The settings on record: human.
In series [9] the test system is Huh 9-13 cells. The experiment in a line: Host-cell metabolic activity in Huh 9-13 cells. Type of series: cell-based.

For the molecule `CC(C)(C)NC(=O)N[C@H](C(=O)N1C[C@H]2[C@@H]([C@H]1C(=O)NC(CC1CCC1)C(=O)C(N)=O)C2(C)C)C(C)(C)C` (stereo partly shown) [boceprevir], the CC50 in series [1] is at least 7.4 µM. Further, the EC50 in [2] is 930 nM.

Regarding `CC(C)OC(=O)[C@H](C)N[P@](=O)(OC[C@@]1(F)O[C@@H](n2ccc(=O)[nH]c2=O)[C@](C)(O)[C@@H]1O)Oc1ccccc1` [AL-335], in [3], the EC50 is 70 nM.

On to `CCC[C@H](NC(=O)[C@@H]1[C@H]2CCC[C@H]2CN1C(=O)[C@@H](NC(=O)[C@@H](NC(=O)c1cnccn1)C1CCCCC1)C(C)(C)C)C(=O)C(=O)NC1CC1` [telaprevir], for which the CC50 in series [1] was at least 24 µM. Also, the EC50 in series [2] is 1100 nM.

For the molecule `O=c1ccnc(SCc2cc3cc(Cl)ccc3oc2=O)[nH]1` [Compound 18, 2-[(6′-Chlorocoumarin-3′-yl)methylthio]uracil], the “SI (CC50/EC50)” value in [4] was above 41; in series [7] (Huh 5-2 cells, primary screening starting at 50 μg/mL), above 3.2; in series [7] (Huh 5-2 cells, secondary screen starting at 125 μg/mL), above 4.5. Besides, the “Quantity (HCV replicon RNA, real-time PCR)” value is 2.11E-03 in series [4] (0.977 µg/ml); 2.06E-03 in series [4] (1.953 µg/ml); 1.40E-03 in series [4] (3.906 µg/ml); 1.12E-03 in [4] (7.813 µg/ml); 4.59E-04 in series [4] (15.625 µg/ml); 2.30E-04 in [4] (31.25 µg/ml). Moreover, the “Quantity (HCV replicon RNA, real-time PCR)” value in series [4] (62.50 µg/ml) is on record as 6.77E-05; in series [4] (125 µg/ml), 4.20E-05. In addition, the “% replicon RNA” value in series [4] (0.977 µg/ml) stood at 66%; in series [4] (1.953 µg/ml) it was 64%; in series [4] (3.906 µg/ml), 44%; in [4] (7.813 µg/ml), 35%; in series [4] (15.625 µg/ml), 14%; in series [4] (31.25 µg/ml), 7%. The “% replicon RNA” value in series [4] (62.50 µg/ml) amounted to 2%; in series [4] (125 µg/ml), 1%. The EC50 in [4] (real-time quantitative RT-PCR readout) was 9.4 µM; in series [4] (supplement dose-response data) it was 3 µg/mL; in series [7] (Hepatitis C virus, primary screening, tested starting at 50 μg/mL), 48 µM; in series [7] (Hepatitis C virus, secondary screen starting at 125 μg/mL, average of triplicate), 87 µM. Moreover, the CC50 in [5] (primary screening, tested starting at 50 μg/mL) is above 156 µM; in series [5] (secondary screen starting at 125 μg/mL), above 390 µM; in [8] (compound 18 tested starting at 125 µg/mL), above 390 µM; in series [8] (supplement dose-response data) it was above 125 µg/mL. The “cell death at highest tested concentration” value in series [6] (20 μM) is “none of the three compounds induced cell death”. Moreover, in [6] (Homo sapiens, 72 h incubation, tested starting at 20.0 μM, read-out: IC50 (cell survival rate of 50%)), the IC50 is above 20 µM. The molecule further yielded an inhibition at 125 µg/mL in series [7] (Hepatitis C virus, Huh 5-2 cells, at 125 μg/mL) above 90%. Further, the “% cell metabolism” value amounted to 103% in series [9] (0.977 µg/ml); 92% in series [9] (1.953 µg/ml); 109% in series [9] (3.906 µg/ml); 101% in series [9] (7.813 µg/ml); 98% in [9] (15.625 µg/ml); 103% in series [9] (31.25 µg/ml). Also, the figures for the “% cell metabolism” value in [9] (62.50 µg/ml) and in series [9] (125 µg/ml) were 99% and 104%, respectively.
